From patent publication US10239863B2, “Factor XIa inhibitors” (Merck Sharp & Dohme Corp., priority 2013, dated 2019)
Counter-ions that a name gives are not always drawn.

biological target: T1, purified human Factor XIa (Homo sapiens, UniProt P03951); experiment: Factor XIa Assay (hydrolysis of fluorogenic substrate Z-Gly-Pro-Arg-AFC); format: biochemical; conditions: purified human Factor XIa 40 pM; Z-Gly-Pro-Arg-AFC 100 μM; 50 mM HEPES pH 7.4; read-out: Factor XIa Inhibition (IC50 (nM))
T1 construct: Determinations were made using purified human Factor XIa; purchased Sekisui Diagnostics
T1 sequence (P03951 388-625 limits assumed): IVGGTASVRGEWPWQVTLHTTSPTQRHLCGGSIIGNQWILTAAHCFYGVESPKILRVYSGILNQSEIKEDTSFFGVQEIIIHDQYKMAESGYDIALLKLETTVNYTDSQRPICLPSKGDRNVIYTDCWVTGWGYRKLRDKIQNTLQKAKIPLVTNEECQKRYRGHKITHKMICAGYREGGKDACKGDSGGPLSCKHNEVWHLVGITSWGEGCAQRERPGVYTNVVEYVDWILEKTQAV
T1 sequence (P03951 19-387 partner limits assumed): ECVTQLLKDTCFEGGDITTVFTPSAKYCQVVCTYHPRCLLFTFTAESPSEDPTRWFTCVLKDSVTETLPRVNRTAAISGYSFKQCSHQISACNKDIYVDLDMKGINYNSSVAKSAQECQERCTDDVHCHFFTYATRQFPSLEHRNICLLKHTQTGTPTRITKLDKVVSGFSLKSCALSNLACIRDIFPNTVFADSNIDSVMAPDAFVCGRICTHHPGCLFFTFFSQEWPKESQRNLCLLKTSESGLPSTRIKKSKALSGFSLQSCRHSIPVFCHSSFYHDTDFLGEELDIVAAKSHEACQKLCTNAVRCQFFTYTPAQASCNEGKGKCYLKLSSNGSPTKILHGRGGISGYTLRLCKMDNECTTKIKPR
Procedure: The effectiveness of compounds of the present invention as inhibitors of Coagulation Factor XIa can be determined using a relevant purified serine protease, and an appropriate synthetic substrate. The rate of hydrolysis of the chromogenic or fluorogenic substrate by the relevant serine protease was measured both in the absence and presence of compounds of the present invention. Assays were conducted at room temperature or at 37° C. […] A decrease in the rate of fluorescence change in the presence of inhibitor is indicative of enzyme inhibition. Such methods are known to one skilled in the art. […]
Factor XIa determinations were made in 50 mM HEPES buffer at pH 7.4 containing 150 mM NaCl, 5 mM CaCl2, and 0.1% PEG 8000 (polyethylene glycol; JT Baker or Fisher Scientific). Determinations were made using purified human Factor XIa at a final concentration of 40 pM (Sekisui Diagnostics) and the synthetic substrate, Z-Gly-Pro-Arg-AFC, TFA salt (Sigma #C0980) at a concentration of 100 μM.
Times required to achieve equilibration between enzyme and inhibitor were determined in control experiments. Initial velocities of product formation in the absence (Vo) or presence of inhibitor (Vi) were measured. Assuming competitive inhibition, and that unity is negligible compared Km/[S], [I]/e, and [I]/e (where [S], [I], and e respectively represent the total concentrations, of substrate, inhibitor and enzyme), the equilibrium constant (Ki) for dissociation of the inhibitor from the enzyme can be obtained from the dependence of Vo/Vi on [I] shown in the following equation.

Structure (SMILES) | IC50
O=C(O)c1ccc(NC(=O)[C@@H]2[C@H](c3ccccc3)C[C@H](OC3CCNCC3)CN2C(=O)/C=C/c2cc(Cl)ccc2-n2cnnn2)cc1 (racemic) [Example 8, 4-(1-((E)-3-(5-Chloro-2-(1H-tetrazol-1-yl)phenyl)acryloyl)-3-phenyl-5-(piperidin-4-yloxy)piperidine-2-carboxamido)benzoic acid] | 4.7 nM
O=C(O)c1ccc(NC(=O)[C@@H]2[C@H](C3CCCCC3)C[C@H](OC3CCNCC3)CN2C(=O)/C=C/c2cc(Cl)ccc2-n2cnnn2)cc1 (racemic) [Example 11] | 6.1 nM
O=C(O)c1ccc(NC(=O)[C@@H]2[C@H](OC3CCNCC3)C[C@H](c3ccccc3)CN2C(=O)/C=C/c2cc(Cl)ccc2-n2cnnn2)cc1 (racemic) [Example 12, 4-(1-((E)-3-(5-chloro-2-(1H-tetrazol-1-yl)phenyl)acryloyl)-5-phenyl-3-(piperidin-4-yloxy)piperidine-2-carboxamido)benzoic acid] | 155 nM
O=C(O)c1ccc(NC(=O)[C@@H]2[C@H](c3ccccc3)C[C@H](OC3CCNCC3)CN2C(=O)/C=C/c2cc(Cl)ccc2-n2cnnn2)cc1 (single isomer, unassigned) [Example 9] | 2.5 nM
O=C(O)c1ccc(NC(=O)[C@@H]2[C@H](c3ccccc3)C[C@H](C3CCNCC3)CN2C(=O)/C=C/c2cc(Cl)ccc2-n2cnnn2)cc1 (single isomer, unassigned) [Example 23, trifluoroacetic acid salt] | 640 nM
COC(=O)Nc1ccc(-c2c[nH]c([C@@H]3[C@H](C4CC4)C[C@H](C4CCN(S(C)(=O)=O)CC4)CN3C(=O)/C=C/c3cc(Cl)ccc3-n3cnnn3)n2)cc1 (single isomer, unassigned) [Example 28] | 652 nM
O=C(O)c1ccc(NC(=O)[C@H]2[C@@H](c3ccccc3)C[C@@H](OC3CCNCC3)CN2C(=O)/C=C/c2cc(Cl)ccc2-n2cnnn2)cc1 [Example 10, 4-((2R,3R,5R)-1-((E)-3-(5-chloro-2-(1H-tetrazol-1-yl)phenyl)acryloyl)-3-phenyl-5-(piperidin-4-yloxy)piperidine-2-carboxamido)benzoic acid] | 306 nM
COC(=O)Nc1ccc(-c2cnc(C3C(c4ccc(F)cc4)CC(N4CCC(N)CC4)CN3C(=O)/C=C/c3c(C(F)(F)F)ccc(Cl)c3F)[nH]2)cc1 (centres unmarked) [Example 19, methyl (4-{2-[4-amino-1′-{(2E)-3-[3-chloro-2-fluoro-6-(trifluorometh-yl)phenyl]prop-2-enoyl}-5′-(4-fluorophenyl)-1,3′-bipiperidin-6′-yl]-1H-imidazol-5-yl}phenyl)carbamate] | 67.8 nM

Results, then the compound that gave them:

IC50 | Structure (SMILES)
1.7 nM | COC(=O)Nc1ccc(-c2c[nH]c(C3C(c4ccc(F)cc4)CC(N4CCC(N)CC4)CN3C(=O)/C=C/c3cc(Cl)ccc3-n3cnnn3)n2)cc1 (single isomer, unassigned) [Example 13, Methyl (4-{2-[4-amino-1′-{(2E)-3-[5-chloro-2-(1H-tetrazol-1-yl)phenyl]prop-2-enoyl}-5′-(4-fluorophenyl)-1,3′-bipiperidin-6′-yl]-1H-imidazol-4-yl}phenyl)-carbamate]
656 nM | COC(=O)Nc1ccc(-c2c[nH]c([C@@H]3[C@H](C4CC4)C[C@H](C4CCNCC4)CN3C(=O)/C=C/c3cc(Cl)ccc3-n3cnnn3)n2)cc1 (single isomer, unassigned) [Example 26]
11.4 nM | O=C(O)c1ccc(NC(=O)C2C(c3ccccc3)CC(N3CCNCC3)CN2C(=O)/C=C/c2cc(Cl)ccc2-n2cnnn2)cc1 (centres unmarked) [Example 2, 4-{[(1-{(2E)-3-[5-chloro-2-(1H-tetrazol-1-yl)phenyl]prop-2-enoyl}-3-phenyl-5-piperazin-1-ylpiperidin-2-yl)carbonyl]amino}benzoic acid]
27.2 nM | CC(C)C1CC(N2CCC(N)CC2)CN(C(=O)/C=C/c2cc(Cl)ccc2-n2cnnn2)C1C(=O)Nc1ccc(C(=O)O)cc1 (centres unmarked) [Example 3, 4-({[4-amino-1′-{(2E)-3-[5-chloro-2-(1H-tetrazol-1-yl)phenyl]prop-2-enoyl}-5′-(1-methylethyl)-1,3′-bipiperidin-6′-yl]carbonyl}amino)benzoic acid]
2.2 nM | NC1CCN(C2CC(C3CC3)C(C(=O)Nc3ccc(C(=O)O)cc3)N(C(=O)/C=C/c3cc(Cl)ccc3-n3cnnn3)C2)CC1 (centres unmarked) [Example 4, 4-{[(4-amino-1′-{(2E)-3-[5-chloro-2-(1H-tetrazol-1-yl)phenyl]prop-2-enoyl}-5′-cyclopropyl-1,3′-bipiperidin-6′-yl)carbonyl]amino}benzoic acid]
105 nM | CC1CC(N2CCC(N)CC2)CN(C(=O)/C=C/c2cc(Cl)ccc2-n2cnnn2)C1C(=O)Nc1ccc(C(=O)O)cc1 (centres unmarked) [Example 5, 4-{[(4-amino-1′-{(2E)-3-[5-chloro-2-(1H-tetrazol-1-yl)phenyl]prop-2-enoyl}-5′-methyl-1,3′-bipiperidin-6′-yl)carbonyl]amino}benzoic acid]
0.4 nM | NC1CCN([C@@H]2C[C@H](c3ccccc3)[C@H](C(=O)Nc3ccc(C(=O)O)cc3)N(C(=O)/C=C/c3cc(Cl)ccc3-n3cnnn3)C2)CC1 [Example 7, 4-({[(3′R,5′R,6′R)-4-amino-1′-{(2E)-3-[5-chloro-2-(1H-tetrazol-1-yl)phenyl]prop-2-enoyl}-5′-phenyl-1,3′-bipiperidin-6′-yl]carbonyl}amino)benzoic acid]
139 nM | NC1CCN(C2CC(c3ccc(F)cc3)C(c3nc(-c4cccnc4)c[nH]3)N(C(=O)/C=C/c3cc(Cl)ccc3-n3cnnn3)C2)CC1 (centres unmarked) [Example 14, 1′-{(2E)-3-[5-chloro-2-(1H-tetrazol-1-yl)phenyl]prop-2-enoyl}-5′-(4-fluorophenyl)-6′-(4-pyridin-3-yl-1H-imidazol-2-yl)-1,3′-bipiperidin-4-amine]
82.1 nM | NC1CCN([C@H]2C[C@@H](c3ccc(F)cc3)[C@@H](c3nc(-c4cccnc4)c[nH]3)N(C(=O)/C=C/c3cc(Cl)ccc3-n3cnnn3)C2)CC1 [Example 15, (3′S,5′S,6′S)-1′-{(2E)-3-[5-chloro-2-(1H-tetrazol-1-yl)phenyl]prop-2-enoyl}-5′-(4-fluorophenyl)-6′-(4-pyridin-3-yl-1H-imidazol-2-yl)-1,3′-bipiperidin-4-amine]
35.6 nM | N#Cc1ccc(-c2cnc(C3C(c4ccc(F)cc4)CC(N4CCC(N)CC4)CN3C(=O)/C=C/c3c(C(F)(F)F)ccc(Cl)c3F)[nH]2)cc1 (centres unmarked) [Example 16, 4-{2-[4-amino-1′-{(2E)-3-[3-chloro-2-fluoro-6-(trifluoromethyl)phen-yl]prop-2-enoyl}-5′-(4-fluorophenyl)-1,3′-bipiperidin-6′-yl]-1H-imidazol-5-yl}benzonitrile]
889 nM | N#Cc1ccc(-c2cnc(C3C(c4ccc(F)cc4)CC(N4CCC(N)CC4)CN3C(=O)/C=C/c3c(C(F)(F)F)ccc(Cl)c3F)[nH]2)cc1 (centres unmarked) [Example 17, 4-{2-[4-amino-1′-{(2E)-3-[3-chloro-2-fluoro-6-(trifluoromethyl)phen-yl]prop-2-enoyl}-5′-(4-fluorophenyl)-1,3′-bipiperidin-6′-yl]-1H-imidazol-5-yl}benzonitrile]
16.5 nM | N#Cc1ccc(-c2cnc(C3C(c4ccc(F)cc4)CC(N4CCC(N)CC4)CN3C(=O)/C=C/c3cc(Cl)ccc3-n3cnnn3)[nH]2)cc1 (centres unmarked) [Example 18, 4-{2-[4-amino-1′-{(2E)-3-[5-chloro-2-(1H-tetrazol-1-yl)phenyl]prop-2-enoyl}-5′-(4-fluorophenyl)-1,3′-bipiperidin-6′-yl]-1H-imidazol-5-yl}benzonitrile]
